# Reference: patent US9744188B2, “Methods of promoting neuronal outgrowth by gypican 2 that binds to receptor protein tyrosine phosphatase sigma” (PRESIDENT AND FELLOWS OF HARVARD COLLEGE, priority 2011, dated 2017)
# Target: T1, DLAR Ig1-FN3 (Drosophila melanogaster, UniProt P16621)
# T1 construct: hexahistidine (C); made in house; host or cells: HEK-293T cells with kifunensine or GnTI- HEK293S cells
# T1 sequence (P16621 33-606): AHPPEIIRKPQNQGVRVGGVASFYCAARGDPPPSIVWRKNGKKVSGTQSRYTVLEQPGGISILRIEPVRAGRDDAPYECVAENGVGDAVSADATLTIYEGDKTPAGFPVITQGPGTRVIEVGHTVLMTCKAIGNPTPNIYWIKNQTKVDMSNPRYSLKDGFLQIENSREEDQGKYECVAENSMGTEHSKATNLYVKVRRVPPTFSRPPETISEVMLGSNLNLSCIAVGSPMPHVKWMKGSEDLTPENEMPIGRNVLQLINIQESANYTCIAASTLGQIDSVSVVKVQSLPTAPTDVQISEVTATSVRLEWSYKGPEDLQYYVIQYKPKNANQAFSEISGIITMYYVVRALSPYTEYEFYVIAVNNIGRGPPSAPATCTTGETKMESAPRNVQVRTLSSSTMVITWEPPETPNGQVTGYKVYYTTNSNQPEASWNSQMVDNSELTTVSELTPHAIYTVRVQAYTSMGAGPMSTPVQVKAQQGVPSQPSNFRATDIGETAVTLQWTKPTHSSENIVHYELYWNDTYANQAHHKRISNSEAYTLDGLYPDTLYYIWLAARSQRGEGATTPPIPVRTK
# Experiment: SEC-MALS, heparin-induced oligomerisation of DLAR
# Assay type: biochemical
# Description: MALS experiments were carried out on a […] System (Wyatt Technologies). All proteins were purified as described above, and samples were incubated alone or with an oligosaccharide ligand for an hour at room temperature prior to use in MALS analysis. For size defined heparin fragments (Iduron dp4-dp30; product codes HO04-HO30) a five-fold molar excess of oligosaccharide to protein was used, except for the series of experiments presented in FIG. 13, where a range of RPTPσ constructs were tested with a separate batch of dp10 at a two-fold molar excess (FIG. 37, highlighted in blue). Equivalent amounts (equal mg/ml concentrations) of HS (Iduron, GAG-HS01) and CS (Sigma, C4384) were used for MALS experiments as had been for heparin dp10 (in giving a five-fold molar excess). […] All Ig1-FN3 proteins were injected at approximately 10 μM. Size exclusion chromatography was performed in 10 mM Tris, 50 mM NaCl, pH 7.5 on a Superdex75 or Superdex200 HR10/30 column (GE Healthcare), attached to an Agilent chromatography system. An Optilab rEX Refractive Index detector and a Dawn Helios II Multi-Angle Light Scattering (MALS) detector recorded the refractive index and light scattering of the samples upon elution from the size exclusion column. The Wyatt software ASTRA was used to analyse all the data collected.
substance,measurement,value
Heparin,oligomerisation of DLAR Ig1-FN3,promotes the oligomerisation
